Where a SMILES comes first, the peptide text is derived from it. [ ]: non-standard residue; d: D form. Aib = CC(C)(N)C(=O)O

The test system of one test is cerebellar slices. Nature of the test: Lysolecithin-induced demyelination in organotypic cerebellar slice culture. It is filed as cell-based, rat. The method, then: FIG. 7. COG 112 promotes remyelination in a lysolecithin-induced demyelination model in cerebellum slice culture. Cerebellum slices from postnatal day 10 rat pups were cultured for 7 days. Lysolecithin was added to a final concentration of 0.5 mg/ml and then removed after incubation overnight (15˜17 hr). 1 μM COG 112 was added to the slice and cultured for 5 days. The cerebellar slices were either immunohistologically stained with MBP; or collected and lysed for western blotting with myelin marker MBP. (A) naïve slice; (B) 2 days after lysolecithin treatment; (C) day 7 after lysolecithin treatment; (D) day 7 after lysolecithin treatment with COG 112 added on day 3; (E) Western blot of cerebellar lysates probed for MBP; (F) Densitometry analysis of blots probed for MBP. The density of each MBP band was normalized to density of β-actin band. One-way ANOVA was used for statistical analysis. n=4
FIG. 8. COG 112 prevents lysolecithin-induced cell death of oligodendrocytes in cerebellum slice culture. Cerebellum slices from postnatal day 10 rat pups were cultured for 7 days. Lysolecithin was added to a final concentration of 0.5 mg/ml with and without COG 112 (1 μM). After incubation overnight (16 hr), medium was replaced with fresh lysolecithin-free medium, but still containing COG 112 for the COG 112 treatment group. After two days, the cerebellar slices were collected and lysed for western blotting with myelin marker MBP (left panel) and oligodendrocyte marker CNPase (right panel). The density of each MBP or CNPase band was normalized to the density of the β-actin band. One-way ANOVA was used for statistical analysis. n=4, * p<0.01.
FIG. 19. COG 345 promotes remyelination in lysolecithin-induced demyelination model of cerebellum slices. Significant demyelination was induced by lysolecithin (0.5 mg/ml) in cerebellar slices. COG 112 or COG 345 (1 μM) was added on day 3 when full demyelination was achieved. 4 days later, the slices were fixed and double stained with myelin marker MBP (green) and Purkinje cell marker calbindin (red). (A) Untreated-slices; (B) lysolecithin-treated slices; (C) COG 112-treated slices after lysolecithin exposure; (D) COG 345-treated slices after lysolecithin exposure. E-F. ApoE analogs protect OPCs from LPS-induced cell death in OPC/microglia mixed culture. OPCs and microglia derived from brain culture of P2 rat pups were plated in 96-well plates in 1:1 ratio. LPS (10 ng/ml) together with 1 μM of the indicated ApoE analogs was added to the cultures. After 24 hours, OPC cell death was quantified by LDH assay (E) and MTT assay (F). Statistical analysis was conducted by one-way ANOVA followed by Dunnett comparison vs. LPS group. * P<0.01, ** P<0.001, n=3.
The effect of COG peptides (i.e. ApoE analogs) on remyelination in a second model of demyelination was examined. For this series of experiments, a lysolecithin-induced in vitro demyelination model in an organotypic cerebellar slice culture was used. Parasagittal slices of postnatal Day 10 (P10) rat cerebellum were cut at 400 μm using a Tissue Slicer (SD Instruments, Grants Pass, Oreg.). After culture in conditioned medium for 7 days in vitro (DIV), fresh medium with lysolecithin (0.5 mg/ml) was added to the slice and incubated overnight (15-17 hours) at 37° C. The lysolecithin-containing medium was then replaced with fresh medium without lysolecithin. On day 3, COG 112 (1 μM) was added to the slice with fresh medium. After incubation for 5 days, the cerebellar slices were either immunohistologically stained for myelin basic protein (MBP), a myelin marker, (FIG. 7A-D) or lysed for western blotting and subsequent probing for MBP (FIGS. 7E and F). […] Similar results were obtained from the Western blot analysis of lysates of the cerebellar slices (FIGS. 7E and F). […] In addition, the blots of cerebellar slice lysate were also probed for oligodendrocyte (OL) marker 2′,3′-Cyclic Nucleotide 3′-Phosphodiesterase (CNPase). […]

The subject of the next test is enriched OPC cultures. The test can be described thus: Number of mature oligodendrocytes after differentiation of enriched OPC culture. The conditions noted are these: 2 μM COG 133, 1 μM COG 112 or 1 μM COG 68 for four days, then six days differentiation without analog. Format: cell-based, rat. Here is the method: FIG. 11. ApoE analogs increase the number of mature oligodendrocytes in culture. ApoE analogs (COG 133, COG 112, and COG 68) were added to enriched OPC culture in proliferation media for four days. Cultures were then differentiated in the absence of the ApoE analogs. Cells were labeled with a GST-π antibody to detect mature oligodendrocytes.
Since COG 112 increased the proliferation of OPCs, we next examined whether the ApoE analogs could also increase the number of mature oligodendrocytes. Enriched OPC cultures were prepared as described for the previous experiment. 2 μM COG 133 (SEQ ID NO: 1), 1 μM COG 112 (SEQ ID NO: 5), or 1 μM COG 68 (Ac-[…]-NH2; SEQ ID NO: 7) were added to the enriched OPC cultures in proliferation media for four days. The media was then replaced with differentiation medium without the ApoE analogs for an additional six days. Cells were labeled with a GST-π antibody to detect mature oligodendrocytes.

Another test concerns the target T1, Calcineurin (Homo sapiens, UniProt Q08209).
T1 construct: purchased BioMol AK-804
Nature of the test: Cell-free calcineurin phosphatase activity assay (BioMol kit). The conditions noted are these: various concentrations. It is filed as biochemical. Here is the method:
FIG. 14. ApoE analogs bind directly to calcineurin and inhibit its activity. […] (B) Immunoprecipitation of human brain lysate with a biotin-COG 133 conjugate. Lane 1=markers; lane 2=clear bead; lane 3=biotin-COG 133 bead conjugate; and lane 4=10 μg lysate. (C) Immunoprecipitation of different glial cultures with a biotin-COG 133 conjugate. Lane 1=markers; lane 2=astrocyte; lane 3=microglia; and lane 4=oligodendrocyte precursor cells (OPC). Blots in B and C were probed for calcineurin (PP2B).
Calcineurin activity was measured in a cell-free in vitro assay in the presence of various concentrations of COG 133 (SEQ ID NO: 1), COG 112 (SEQ ID NO: 5), COG 68 (SEQ ID NO: 7), COG 125 (Ac-AS(Aib)LRKL(Aib)KR—COOH; SEQ ID NO: 8), or antennapedia (antp), the prefix peptide for COG 112. […] Using a BioMol Calcineurin Phosphatase Activity Kit (Cat. #AK-804), the assay was conducted according to manufacturer's instructions. […] This inhibition of calcineurin activity by ApoE analogs is mediated by a direct interaction of the ApoE analog with the phosphatase.

[1] abbreviates: 1 μM added on day 3 after lysolecithin, 5 days.
Setting [2] is: 1 μM added together with lysolecithin, 2 days after.

`CC(=O)NC(=N)NCCC[C@H](NC(=O)[C@H](CCCCN)NC(=O)[C@H](CCCNC(=N)N)NC(=O)[C@H](CC(C)C)NC(=O)[C@H](CCCCN)NC(=O)[C@H](CCCNC(=N)N)NC(=O)[C@H](CC(C)C)NC(=O)C(C)(C)NC(=O)[C@H](CO)NC(=O)[C@H](C)NC(=O)[C@H](CC(C)C)NC(=O)[C@H](CCCNC(=N)N)NC(=O)[C@@H](NC(=O)[C@H](CCCNC(=N)N)NC(=O)[C@H](CC(C)C)NC(C)=O)C(C)C)C(=O)N[C@@H](CC(C)C)C(=O)N[C@@H](CC(C)C)C(N)=O` [COG 345, acetyl-LRVRLAS-Aib-LRKLRK(acetyl-Arg)LL-amide] (Ac-LRVRLAS[Aib]LRKLRKR(Ac)LL-NH2): the “myelination (MBP/calbindin double staining)” value with cerebellar slices (1 μM added three days after lysolecithin, 4 days) is reported as “dramatically restored myelination”.
For the molecule `CC(=O)N[C@@H](CC(C)C)C(=O)N[C@@H](CCCNC(=N)N)C(=O)N[C@H](C(=O)N[C@@H](CCCNC(=N)N)C(=O)N[C@@H](CC(C)C)C(=O)N[C@@H](C)C(=O)N[C@@H](CO)C(=O)N[C@@H](Cc1c[nH]cn1)C(=O)N[C@@H](CC(C)C)C(=O)N[C@@H](CCCNC(=N)N)C(=O)N[C@@H](CCCCN)C(=O)N[C@@H](CC(C)C)C(=O)N[C@@H](CCCNC(=N)N)C(=O)N[C@@H](CCCCN)C(=O)N[C@@H](CCCNC(=N)N)C(=O)N[C@@H](CC(C)C)C(=O)N[C@@H](CC(C)C)C(N)=O)C(C)C` [COG 133], the “number of mature oligodendrocytes (GST-π)” value in the test with enriched OPC cultures is reported as “significantly increased the number of mature oligodendrocytes”. Moreover, at Calcineurin, the “inhibition of calcineurin activity” value was “dose-dependent inhibition”.
As to “Ac-RQIKIWFQNRRMKWKKCLRVRLASHLRKLRKRLL-NH2 [COG 112]”, in the test with enriched OPC cultures, the “number of mature oligodendrocytes (GST-π)” value is given as “significantly increased the number of mature oligodendrocytes”. The “inhibition of calcineurin activity” value at Calcineurin is “dose-dependent inhibition”. Moreover, in the test on cerebellar slices (setting [1]), the “MBP levels (Western blot)” value was “increased MBP levels” and the “level of MBP protein (immunostaining)” value is “robustly elevated”. For the same molecule, in the test with cerebellar slices (setting [2]), the “prevention of lysolecithin-induced demyelination (MBP Western blot)” value was “did not prevent lysolecithin-induced demyelination” and the “prevention of oligodendrocyte cell death (CNPase Western blot)” value was “did prevent oligodendrocyte cell death”. For the same molecule, in the test with cerebellar slices (1 μM post-treatment, data not shown), the “level of CNPase (Western blot)” value is “significantly increased”.

Values taken from patent US8629242B2, “Methods of inhibiting calcineurin with ApoE analogs” (Cognosci, Inc., priority 2007, dated 2014).
